Source: paper doi:10.1101/2020.06.07.139295v2 (biorxiv, 2020)
Substitutions are numbered along the chain they refer to.

Tests used:
TTLL6 (51-502) [1] = molecular target: T1, TTLL6 (51-502) (Mus musculus, UniProt A4Q9E8, C179A/H362I/Q180R); experiment: [3H]-glutamate transfer to taxol-stabilized brain microtubules, filter assay; assay type: biochemical
T1 sequence (A4Q9E8 51-502 C179A/Q180R/H362I): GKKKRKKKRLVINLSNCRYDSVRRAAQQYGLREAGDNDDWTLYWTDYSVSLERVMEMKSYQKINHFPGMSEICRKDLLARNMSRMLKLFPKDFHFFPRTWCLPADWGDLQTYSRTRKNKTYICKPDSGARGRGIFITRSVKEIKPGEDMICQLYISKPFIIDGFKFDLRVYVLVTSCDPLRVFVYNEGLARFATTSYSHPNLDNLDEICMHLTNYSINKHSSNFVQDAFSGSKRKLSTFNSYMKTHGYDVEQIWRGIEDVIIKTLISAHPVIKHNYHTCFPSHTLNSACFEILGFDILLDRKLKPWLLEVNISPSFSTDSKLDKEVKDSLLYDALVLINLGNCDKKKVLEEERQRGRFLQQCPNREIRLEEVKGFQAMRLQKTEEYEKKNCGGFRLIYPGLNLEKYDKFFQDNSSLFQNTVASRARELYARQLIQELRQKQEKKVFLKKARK

TTLL6 (51-502) [2] = molecular target: T2, TTLL6 (51-502) (Mus musculus, UniProt A4Q9E8); experiment: as above; assay type: biochemical
T2 sequence (A4Q9E8 51-502): T1 sequence (A4Q9E8 51-502 C179A/Q180R/H362I) with A129C, R130Q, I312H

SMILES | IC50 (TTLL6 (51-502) [1]) [µM] | IC50 (TTLL6 (51-502) [2]) [µM]
CC(=O)N[C@@H](CCP(=O)(O)CC(CCC(=O)O)C(=O)O)C(=O)O (mixture of isomers) [γ-elongation analog] | 2.5 ± 0.1 | ~6
CCNC(=O)[C@H](CCP(=O)(O)CC(CCC(=O)O)C(=O)O)NC(C)=O (mixture of isomers) [initiation analog] | 3.5 ± 0.2 | 6.1
CC(=O)NC(CCC(=O)O)P(=O)(O)CC(CCC(=O)O)C(=O)O (mixture of isomers) [α-elongation analog] | 5.4 ± 0.8 | 0.6 ± 0.05
